From patent publication US6818663B2, “Diaminothiazoles” (Hoffmann-La Roches, priority 2002, dated 2004) come the findings set out here.

The test system of assay [1] is HCT116, a colorectal carcinoma cell line. Description: Tetrazolium dye proliferation assay (MTT assay). Type of assay: cell-based. The conditions noted are these: Homo sapiens, HCT-116, HCT116 cells, inhibition of cell proliferation. On the procedure:
Proliferation was evaluated by the tetrazolium dye assay according to the procedure of Denizot and Lang (Denizot, F. and Lang, R. J Immunol Methods 1986, 89, 271-277). The cell line used was HCT116, a colorectal carcinoma cell line obtained from the American Type Cell Culture Collection (ATCC; Rockville, Md.). The cells were grown in McCoy's 5A medium supplemented with 10% FCS and L-glutamine.
Cells were plated at the appropriate seeding density to give logarithmic growth over the course of the assay in a 96-well tissue culture plate. Plates were incubated overnight at 37° C. in a humidified incubator with 5% CO2. The next day, test compounds were serially diluted to four times the final concentration in the appropriate medium containing 1.2% DMSO. One-fourth final volume of each dilution was added in duplicate to the plates containing cells. The same volume of 1.2% DMSO in medium was added to a row of “control wells” such that the final concentration of DMSO in each well was 0.3%. Wells to which no cells were added served as the “blank.” Wells to which no inhibitor was added served as “no inhibitor control.” The plates were) returned to the incubator, and at set time points (determined by their growth curves) plates were analyzed as described below.
3-(4,5-dimethylthiazole-2-yl)-2,5-diphenyl-2H-tetrazolium bromide (thiazolyl blue; MTT; Sigma) was added to each well to yield a final concentration of 1 mg/ml. Plates were returned to the incubator for 2.5-3 hours at 37° C. The MTT-containing medium was removed and the resulting formazan metabolite was solubilized in 100% ethanol with shaking for 15 minutes at room temperature. Absorbance readings were taken in a microtiter plate reader (Dynatech and Molecular Devices plate readers were used interchangeably) at a wavelength of 570 nm with a 650 nm reference. Percent inhibition (% INH) is calculated by subtracting the absorbance of the blank well from all wells, then subtracting the ratio of the average absorbance of each test duplicate (SAVE) by the average of the controls (CAVE) from 1.00. The final number is then multiplied by 100 (% INH=(1.00−SAVE/CAVE)×100). The concentration at which 50% inhibition of cell proliferation is obtained (the IC50) is determined from the linear regression of a plot of the logarithm of the concentration versus percent inhibition.
In general terms: Tetrazolium dyes change colour on reduction, which living cells bring about.

For a further assay, the target named is human cyclin E-CDK2 (Homo sapiens, UniProt P24941). Description: FlashPlate kinase assay, cyclin E-CDK2, Rb substrate. Type of assay: biochemical. The conditions noted are these: recombinant cyclin E-CDK2, Rb phosphorylation, 1 μM ATP. How it is done:
(§1) To determine inhibition of Cdk4, Cdk2 and Cdk1 activity, kinase assays were conducted using FlashPlate™ assays (NEN™-Life Science Products). FlashPlate assays were performed using recombinant human cyclin B-CDK1, human cyclin E-CDK2 or human cyclin D1-CDK4 complexes. GST-cyclinE (GST-cycE), CDK2, GST-cyclinB (GST-cycB), CDK1, GST-CDK4 and cyclin D1 (cycD1) cDNA clones in baculovirus vectors were provided by Dr. W. Harper at the Baylor College of Medicine, Houston, Tex. Proteins were co-expressed in High Five™ insect cells and the complex was purified on glutathione Sepharose resin (Pharmacia, Piscataway, N.J.) as previously described (Harper, J. W. et al. Cell 1993, 75, 805-816). A 6×-Histidine tagged truncated form of retinoblastoma (Rb) protein (amino acid 386-928) was used as the substrate for the cycD1-CDK4, cycB-CDK1 and the cycE-CDK2 assays (the expression plasmid was provided by Dr. Veronica Sullivan, Department of Molecular Virology, Roche Research Centre, Welwyn Garden City, United Kingdom). The Rb protein is a natural substrate for phosphorylation by CDK4, CDK2 and CDK1 (see Herwig and Strauss Eur. J. Biochem. Vol. 246 (1997) pp. 581-601 and the references cited therein).
(§2) The expression of the 62 Kd protein was under the control of an IPTG inducible promoter in an M15 E. coli strain. Cells were lysed by sonication and purification was carried out by binding lysates at pH 8.0 to a Ni-chelated agarose column pretreated with 1 mM imidazole. The resin was then washed several times with incrementally decreasing pH buffers to pH 6.0, and eluted with 500 mM imidazole. Eluted protein was dialysed against 20 mM HEPES pH 7.5, 30% glycerol, 200 mM NaCl, and 1 mM DTT. Purified Rb fusion protein stocks were quantitated for protein concentration, aliquoted, and stored at −70° C.
(§3) For all three kinase assays reported herein, 96-well FlashPlates were coated with Rb protein at 10 μg/ml, using 100 μl per well. Plates were incubated at 4° C. overnight or at room temperature for 3 hours on a shaker. To control for nonspecific phosphorylation, one row of wells was coated with 100 μl/well coating buffer (20 mM HEPES, 0.2 M NaCl). Plates were then washed twice with wash buffer (0.01% Tween 20 in phosphate-buffered saline). Compounds to be tested (“test compounds”) were added to the wells at 5×final concentration. Reactions were initiated by immediate addition of 40 μl reaction mix (25 mM HEPES, 20 mM MgCl2, 0.002% Tween 20, 2 mM DTT, 1 μM ATP, 4 nM ^33P-ATP) and a sufficient amount of enzyme to give counts that were at least 10-fold above background. Plates were incubated at room temperature on a shaker for 30 minutes. Plates were washed four times with the wash buffer, sealed, and counted on the TopCount scintillation counter (Packard Instrument Co., Downers Grove, Ill.]. The percent inhibition of Rb phosphorylation, which is a measure of the inhibition of CDK activity, was determined according to the following formula: [formula]
(§4) where “test compound” refers to the average counts per minute of the test duplicates, “nonspecific” refers to the average counts per minute when no CyclinD/Cdk4, etc., was added, and “total” refers to the average counts per minute when no compound was added. The IC50 value is the concentration of test compound that reduces by 50% the protein-kinase induced incorporation of the radiolabel under the test conditions described.

For another assay, the target named is human cyclin D1-CDK4 (Homo sapiens, UniProt P11802). Nature of the assay: FlashPlate kinase assay, cyclin D1-CDK4, Rb substrate. Type of assay: biochemical. As to conditions: recombinant cyclin D1-CDK4, Rb phosphorylation, 1 μM ATP. How it is done:
as §1, §2, §3, §4

The target of a further assay is human cyclin B-CDK1 (Homo sapiens, UniProt P06493). Nature of the assay: FlashPlate kinase assay, cyclin B-CDK1, Rb substrate. Type of assay: biochemical. As to conditions: recombinant cyclin B-CDK1, Rb phosphorylation, 1 μM ATP. On the procedure:
as §1, §2, §3, §4

Chain of human cyclin B-CDK1 (P06493 whole entry): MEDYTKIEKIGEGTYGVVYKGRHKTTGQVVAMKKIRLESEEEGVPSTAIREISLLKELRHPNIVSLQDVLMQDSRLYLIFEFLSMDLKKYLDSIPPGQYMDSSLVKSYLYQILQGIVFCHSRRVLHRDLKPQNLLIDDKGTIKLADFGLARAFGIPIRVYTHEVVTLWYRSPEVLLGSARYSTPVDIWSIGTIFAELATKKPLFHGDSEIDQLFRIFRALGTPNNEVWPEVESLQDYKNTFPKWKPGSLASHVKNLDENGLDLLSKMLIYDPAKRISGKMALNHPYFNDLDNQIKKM
Chain of human cyclin B-CDK1 (P14635 whole entry partner): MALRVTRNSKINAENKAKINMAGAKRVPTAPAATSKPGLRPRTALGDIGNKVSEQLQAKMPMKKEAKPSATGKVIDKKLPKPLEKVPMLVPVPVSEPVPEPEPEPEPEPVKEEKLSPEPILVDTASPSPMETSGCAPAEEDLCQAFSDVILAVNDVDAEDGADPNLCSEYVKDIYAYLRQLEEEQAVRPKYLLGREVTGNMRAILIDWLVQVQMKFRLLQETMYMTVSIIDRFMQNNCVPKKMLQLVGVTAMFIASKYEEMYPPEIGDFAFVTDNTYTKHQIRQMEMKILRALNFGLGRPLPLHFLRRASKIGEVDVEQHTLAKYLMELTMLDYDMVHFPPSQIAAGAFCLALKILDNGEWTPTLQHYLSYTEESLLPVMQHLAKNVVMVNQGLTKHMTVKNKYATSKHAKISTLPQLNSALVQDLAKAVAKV
Chain of human cyclin D1-CDK4 (P11802 whole entry): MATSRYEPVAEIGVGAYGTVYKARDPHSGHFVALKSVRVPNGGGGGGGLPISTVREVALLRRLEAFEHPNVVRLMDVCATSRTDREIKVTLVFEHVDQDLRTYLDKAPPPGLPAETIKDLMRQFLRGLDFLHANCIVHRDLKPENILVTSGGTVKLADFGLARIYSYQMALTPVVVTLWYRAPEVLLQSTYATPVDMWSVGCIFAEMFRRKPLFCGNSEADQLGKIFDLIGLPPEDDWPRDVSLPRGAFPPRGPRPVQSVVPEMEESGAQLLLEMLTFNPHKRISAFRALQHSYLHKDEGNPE
Chain of human cyclin D1-CDK4 (P24385 whole entry partner): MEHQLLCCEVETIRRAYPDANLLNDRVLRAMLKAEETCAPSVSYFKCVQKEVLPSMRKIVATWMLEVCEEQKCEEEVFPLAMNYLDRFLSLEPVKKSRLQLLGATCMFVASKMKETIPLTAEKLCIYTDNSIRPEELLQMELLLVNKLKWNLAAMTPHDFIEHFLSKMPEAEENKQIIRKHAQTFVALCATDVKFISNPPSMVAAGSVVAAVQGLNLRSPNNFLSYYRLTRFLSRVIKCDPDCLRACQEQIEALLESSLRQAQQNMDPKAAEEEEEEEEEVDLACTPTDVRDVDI

What is called IC50 is the midpoint of a concentration-inhibition curve. With `CCc1ccc(C(=O)c2sc(Nc3ccc(OCCN4CCCC4)cc3)nc2N)cc1F` [Example 6, [4-Amino-2-[4-(2-pyrrolidin-1-yl-ethoxy)-phenylamino]-thiazol-5-yl]-(4-ethyl-3-fluoro-phenyl)-methanone; Compound With Trifluoroacetic Acid], the IC50 is 3.7 µM in assay [1], 3.17 µM on human cyclin E-CDK2, 0.043 µM on human cyclin D1-CDK4 and 1.13 µM at human cyclin B-CDK1.
Turning to `CN(C)CCOc1ccc(Nc2nc(N)c(C(=O)c3ccc4c(c3)OCCO4)s2)cc1` [Example 58, [4-Amino-2-[4-(2-dimethylamino-ethoxy)-phenylamino]-thiazol-5-yl]-(2,3-dihydro-benzo[1,4]dioxin-6-yl)-methanone], the results for the IC50 (in assay [1]; on human cyclin D1-CDK4; on human cyclin B-CDK1) were 3.7 µM, 0.043 µM and 0.884 µM, respectively.
On the same counts, the results for `CCc1cc(C(=O)c2sc(Nc3ccc(OCCN4CCCC4)cc3)nc2N)ccc1F` [Example 76, [4-Amino-2-[4-(2-pyrrolidin-1-yl-ethoxy)-phenylamino]-thiazol-5-yl]-(3-ethyl-4-fluoro-phenyl)-methanone] are 3.69 µM, 0.063 µM and 3.89 µM.
Take `CCc1cc(C(=O)c2sc(Nc3ccc(OC[C@@H](C)N(C)C)cc3)nc2N)ccc1F` [Example 77, (R)-[4-Amino-2-[4-(2-dimethylamino-propoxy)-phenylamino]-thiazol-5-yl]-(3-ethyl-4-fluoro-phenyl)-methanone]: the values for the IC50 (in assay [1]; at human cyclin D1-CDK4; at human cyclin B-CDK1) were 4.4 µM, 0.08 µM and 7.8 µM, respectively.
With `CCc1cc(C(=O)c2sc(Nc3ccc(OC4CCCN(CC)C4)cc3)nc2N)ccc1F` (stereo not drawn) [Example 81, [4-Amino-2-[4-(1-ethyl-piperidin-3-yloxy)-phenylamino]-thiazol-5-yl]-(3-ethyl-4-fluoro-phenyl)-methanone], the 50% inhibitory concentration (IC50) in assay [1] is 4.24 µM; at human cyclin E-CDK2 it was 6.4 µM; on human cyclin D1-CDK4 it was 0.055 µM.
Take `COc1ccc(C(=O)c2sc(Nc3ccc(OC4CCCNC4)cc3)nc2N)cc1F` (stereo not drawn) [Example 97, [4-Amino-2-[4-(piperidin-3-yloxy)-phenylamino]-thiazol-5-yl]-(3-fluoro-4-methoxy-phenyl)-methanone]: the IC50 on human cyclin E-CDK2 was determined as 3.74 µM; at human cyclin D1-CDK4 it was 0.096 µM; at human cyclin B-CDK1, 1.72 µM.
The like results for `CCc1cccc(C(=O)c2sc(Nc3ccc(OC4CCCNC4)cc3)nc2N)c1` (stereo not drawn) [Example 98, [4-Amino-2-[4-(piperidin-3-yloxy)-phenylamino]-thiazol-5-yl]-(3-ethyl-phenyl)-methanone] were, in that order, 1.23 µM, 0.034 µM and 0.523 µM.
In the case of `CCCc1cc(C(=O)c2sc(Nc3ccc(OC4CCCNC4)cc3)nc2N)ccc1O` (stereo not drawn) [Example 99, [4-Amino-2-[4-(piperidin-3-yloxy)-phenylamino]-thiazol-5-yl]-(4-hydroxy-3-propyl-phenyl)-methanone], the results for the IC50 on human cyclin E-CDK2, on human cyclin D1-CDK4 and at human cyclin B-CDK1 were 0.158 µM, 0.038 µM and 0.174 µM, respectively.
With `CCCc1cc(C(=O)c2sc(Nc3ccc(OCCN(C)C)cc3)nc2N)ccc1O` [Example 106, [4-Amino-2-[4-(2-dimethylamino-ethoxy)-phenylamino]-thiazol-5-yl-](4-hydroxy-3-propyl-phenyl)-methanone; Compound With Acetic Acid], the IC50 at human cyclin E-CDK2 stood at 0.272 µM; at human cyclin D1-CDK4 it was 0.017 µM; at human cyclin B-CDK1, 0.344 µM.
On the same counts, the results for `Cc1cccc(C(=O)c2sc(Nc3ccc(OC[C@@H]4CCCN4C)cc3)nc2N)c1` [Example 111, (S)-[4-Amino-2-[4-(1-methyl-pyrrolidin-2-ylmethoxy)-phenylamino]-thiazol-5-yl]-m-tolyl-methanone] are 2.99 µM, 0.086 µM and 1.56 µM.
As for `CCNCCOc1ccc(Nc2nc(N)c(C(=O)c3ccc4c(c3)OCCO4)s2)cc1` [Example 134, [4-Amino-2-[4-(2-ethylamino-ethoxy)-phenylamino]-thiazol-5-yl]-(2,3-dihydro-benzo[1,4]dioxin-6-yl)-methanone], the half-inhibitory concentration (IC50) was 7.29 µM in assay [1], 0.044 µM at human cyclin D1-CDK4 and 1.93 µM at human cyclin B-CDK1.
`CC(C)NCCOc1ccc(Nc2nc(N)c(C(=O)c3ccc4c(c3)OCCO4)s2)cc1` [Example 136, [4-Amino-2-[4-(2-isopropylamino-ethoxy)-phenylamino]thiazol-5-yl]-(2,3-dihydro-benzo[1,4]dioxin-6-yl)-methanone]: the IC50 stood at 5.09 µM in assay [1], 0.045 µM at human cyclin D1-CDK4 and 1.76 µM at human cyclin B-CDK1.
As for `CC1COc2ccc(C(=O)c3sc(Nc4ccc(OCCN5CCCC5)cc4)nc3N)cc21` (stereo not drawn) [Example 140, [4-Amino-2-[4-(2-pyrrolidin-1-yl-ethoxy)-phenylamino]-thiazol-5-yl]-(3-methyl-2,3-dihydro-benzofuran-5-yl)-methanone], the IC50 in assay [1] came out at 4.63 µM; on human cyclin D1-CDK4, 0.063 µM.
As for `CCNCCOc1ccc(Nc2nc(N)c(C(=O)c3ccc4c(c3)CCO4)s2)cc1` [Example 143, [4-Amino-2-[4-(2-ethylamino-ethoxy)-phenylamino]-thiazol-5-yl]-(2,3-dihydro-benzofuran-5-yl)-methanone], the IC50 on human cyclin E-CDK2 was 3.02 µM; on human cyclin D1-CDK4 it was 0.091 µM; on human cyclin B-CDK1 it was 2.36 µM.
`COc1ccc(C(=O)c2sc(Nc3ccc(OCCCN)cc3)nc2N)cc1F` [Example 147, [4-Amino-2-[4-(3-amino-propoxy)-phenylamino]-thiazol-5-yl]-(3-fluoro-4-methoxy-phenyl)-methanone]: the IC50 is 1.73 µM on human cyclin E-CDK2, 0.097 µM at human cyclin D1-CDK4 and 0.578 µM at human cyclin B-CDK1.
The like results for `CCNCCCOc1ccc(Nc2nc(N)c(C(=O)c3ccc(OC)c(F)c3)s2)cc1` [Example 148, [4-Amino-2-[4-(3-ethylamino-propoxy)-phenylamino]-thiazol-5-yl]-(3-fluoro-4-methoxy-phenyl)methanone] were, in that order, 1.91 µM, 0.067 µM and 0.519 µM.
